According to patent publication EP1200395B1, “UREA DERIVATIVES AS INHIBITORS OF CCR-3 RECEPTOR” (KIRIN BEER KABUSHIKI KAISHA, priority 1999, dated 2001):

target: T1, CCR-3 (Homo sapiens, UniProt P51677); assay: Eotaxin-induced chemotaxis of CCR-3 transfectant cells (CCR3/U937); assay type: cell-based; set-up: expressed in transfected cells; host or cells: U937; conditions: 10 µM test compound; eotaxin 1 x 10^-9 M; CCR3/U937 cells (Table 3a)
T1 sequence (P51677 1-355): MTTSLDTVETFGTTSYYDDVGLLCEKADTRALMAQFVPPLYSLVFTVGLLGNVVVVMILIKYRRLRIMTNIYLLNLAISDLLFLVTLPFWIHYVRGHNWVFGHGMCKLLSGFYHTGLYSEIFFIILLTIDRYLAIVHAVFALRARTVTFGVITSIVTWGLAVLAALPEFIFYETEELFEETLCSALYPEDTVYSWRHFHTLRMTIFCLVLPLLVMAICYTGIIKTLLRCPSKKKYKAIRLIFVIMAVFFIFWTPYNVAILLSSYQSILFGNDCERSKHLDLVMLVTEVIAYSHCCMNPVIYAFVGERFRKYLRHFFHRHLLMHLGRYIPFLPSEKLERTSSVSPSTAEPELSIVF
Protocol: The inhibitory activity of the compounds against eotaxin-induced chemotaxis was determined by measuring the inhibition of migration of CCR-3 transfectant cells (CCR3/U937), using a minor modification of the method described by Ohashi, H. et al., Int Arch Allergy Immunol. […] The chemotaxis assay was performed in a 24-well culture plate. Human eotaxin suspended in assay medium was added to the wells at 1 x 10^-9 M along with test compounds at various concentrations. For a positive control, eotaxin was added to the wells without a test compound, and for a negative control, neither eotaxin nor a test compound was added to the wells. Chemotaxicell (Kurabo Co., Ltd.) having 5 micrometers pore size were inserted into each well and 100 micro liters of CCR-3 transfectant cells suspension were added to the top chamber. The plates were incubated at 37 °C for 1 hour. After incubation, migrated cells in lower wells were diluted and counted by particle size distribution analyzer (CDP-500, Sysmex Co., Ltd.).

Row | SMILES | Chemotaxis Assay 10 µM (inhibition %) [%]
1 | COC(=O)CCCN(CCCNC(=O)Nc1ccc(Br)cc1C)C1CCCc2ccccc21 (centres unmarked) [Compound 200] | 100
2 | O=C(O)CCCN(CCCNC(=O)Nc1ccccc1)CCc1ccc(Cl)cc1 [Compound 80] | 65
3 | COC(=O)CCCN(CCCNC(=O)Nc1ccc(Br)cc1)Cc1ccncc1 [Compound 48] | 34
4 | CCN(CCCCNC(=O)Nc1ccccc1)CCc1ccc(Cl)cc1 [Compound 7] | 99

The remaining lines, values ahead:

Row | Chemotaxis Assay 10 µM (inhibition %) [%] | SMILES
5 | 77 | NC(=O)CN(CCCNC(=O)Nc1ccccc1)CCc1ccc(Cl)cc1 [Compound 220]
6 | 50 | O=C(O)CCCN(CCCNC(=O)Nc1ccc(Br)cc1)CCc1c[nH]c2ccccc12 [Compound 74]
7 | 100 | COC(=O)CCCN(CCCNC(=O)Nc1ccccc1)CCc1ccc(Cl)cc1 [Compound 49]
8 | 100 | COC(=O)CCCN(CCCNC(=O)Nc1cccc(Br)c1)C1CCCc2ccccc21 (centres unmarked) [Compound 198]
9 | 19 | COC(=O)CCCN(CCCNC(=O)Nc1ccccc1-c1ccccc1)C1CCCc2ccccc21 (centres unmarked) [Compound 54]
10 | 100 | O=C(O)CCCN(CCCNC(=O)Nc1ccc(F)cc1)C1CCCc2ccccc21 (centres unmarked) [Compound 188]

same assay, conditions: 10 µM test compound; eotaxin 1 x 10^-9 M; CCR3/U937 cells (Table 3c)

Row | Chemotaxis Assay 10 µM (inhibition %) [%] | SMILES
11 | 100 | CC[N+](CCCNC(=O)Nc1ccc(OC)cc1)(CCc1ccc(Cl)cc1)Cc1ccccc1.[I-] (centres unmarked) [compound 324]
12 | 100 | CC[N+](CCCNC(=O)Nc1ccccc1)(CCc1ccc(Cl)cc1)Cc1ccc(F)cc1F.[I-] (centres unmarked) [compound 339]
13 | 100 | CC[N+](CC)(CCCNC(=O)Nc1ccccc1)Cc1ccccc1.[I-] [Compound 305]
14 | 100 | CC[N+](CCCNC(=O)Nc1ccccc1)(CCc1ccc(Cl)cc1)Cc1cccc([N+](=O)[O-])c1.[I-] (centres unmarked) [compound 338]

same assay, conditions: U-937; 10 µM test compound; eotaxin 1 x 10^-9 M; CCR3/U937 cells (Table 3a)

Row | inhibition at 10 µM [%] | SMILES
15 | 69 | O=C(NCCCN(CCc1ccc(Cl)cc1)CCc1ccc(Cl)cc1)Nc1ccccc1 [Compound 238, [3-(Phenylureido)propyl]bis[2-(4-chlorophenyl)ethyl]amine]
16 | 100 | O=C(CCCN(CCCNC(=O)Nc1ccc(Br)cc1)C1CCCc2ccccc21)NS(=O)(=O)c1ccccc1 (centres unmarked) [Compound 196, 3-[[3-(4-Bromophenylureido)propyl](1,2,3,4-tetrahydro-1-naphthyl)amino]-1-[(phenylsulfonyl)carbamoyl]propane]
17 | 88 | O=C(NCCCN(CCc1ccccc1)CCc1ccc(Cl)cc1)Nc1ccccc1 [Compound 25]
18 | 100 | O=C(O)CCCN(CCCNC(=O)Nc1ccc(Br)cc1)[C@@H]1CCCc2ccccc21 [Compound 181, 4-[[3-(4-Bromophenylureido)propyl][(1R)-1,2,3,4-tetrahydro-1-naphthyl]amino]butanoic acid]
19 | 82 | O=C(NCCCN(CCc1ccc(Cl)cc1)Cc1cccnc1)Nc1ccccc1 [Compound 23]

same assay, conditions: test compound 0.1 µg/ml; eotaxin 1 x 10^-9 M; CCR3/U937 transfectants; 37 °C, 1 hour

Row | SMILES | Chemotaxis Assay 0.1 µg/ml (inhibition %)
20 | CC[N+](CCCNC(=O)Nc1ccccc1)(CCc1ccc(Cl)c(Cl)c1)CC(N)=O.[I-] (centres unmarked) [compound 410] | . 50%
21 | CCC(CC)C[N+](CC)(CCCNC(=O)Nc1ccc(OC)cc1)CCc1cccc(Cl)c1.[I-] (centres unmarked) [compound 448] | 82%
22 | CC[N+](CCCNC(=O)Nc1ccc(C#N)cc1)(CCOCCOC)CCc1cccc(OC)c1.[I-] (centres unmarked) [compound 392] | 45%

Now from value to compound:

Row | Chemotaxis Assay 0.1 µg/ml (inhibition %) | SMILES
23 | 68% | CC[N+](CCF)(CCCNC(=O)Nc1ccc(Br)cc1)CCc1cccc(F)c1.[I-] (centres unmarked) [compound 385]
24 | 94% | CC[N+](CCCNC(=O)Nc1ccc(C(F)(F)F)cc1)(CCOCCOC)CCc1cccc(Cl)c1.[I-] (centres unmarked) [compound 387]
25 | 98% | CC[N+](CCF)(CCCNC(=O)Nc1ccc(Br)cc1)CCc1cccc(Cl)c1.[I-] (centres unmarked) [compound 382]
26 | 100% | CC[N+](CCCNC(=O)Nc1ccc(Br)cc1)(CCOCCOC)CCc1ccc(Cl)cc1Cl.[I-] (centres unmarked) [compound 374]
